Measured values reported in PMC2936488 (ACS chemical neuroscience, 2010).
pEC50: −log10 of the molar value.

Target: T1, M1 muscarinic acetylcholine receptor (M1 mAChR) (Homo sapiens, UniProt P11229)
T1 sequence (P11229 1-460): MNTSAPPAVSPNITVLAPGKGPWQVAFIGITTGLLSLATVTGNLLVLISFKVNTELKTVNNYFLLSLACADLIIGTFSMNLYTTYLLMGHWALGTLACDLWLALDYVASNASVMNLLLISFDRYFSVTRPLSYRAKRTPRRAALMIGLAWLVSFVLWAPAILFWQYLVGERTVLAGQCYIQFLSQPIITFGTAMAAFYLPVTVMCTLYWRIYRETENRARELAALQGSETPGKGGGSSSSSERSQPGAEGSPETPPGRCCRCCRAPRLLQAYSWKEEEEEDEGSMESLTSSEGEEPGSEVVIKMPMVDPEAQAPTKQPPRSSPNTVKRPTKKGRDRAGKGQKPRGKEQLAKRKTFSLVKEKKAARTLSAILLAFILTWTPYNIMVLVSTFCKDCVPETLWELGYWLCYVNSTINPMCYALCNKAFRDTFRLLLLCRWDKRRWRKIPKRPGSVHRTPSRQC
Assay: intracellular calcium mobilization in M1-CHO cells
Assay type: cell-based

Question: With CCCCC1CCN(CCCN2C(=O)COc3cc(F)ccc32)CC1 [AC260584] as the compound, how does the pEC50 read?
Answer: 6.84
